Results reported in patent US10076519B2 (CYTOKINETICS, INC., priority 2010, dated 2018).

Test system: rabbit skeletal myofibrils (fast skeletal myofibrils)
Assay: Activation of fast skeletal myofibrils (PUMA assay, PK/LDH-coupled ATPase at pCa25)
Type: biochemical
How it was run: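 ATPase activity of Triton-washed rabbit skeletal myofibrils, roughly 90% fast fibres, tracked by NADH loss at 340 nm through a PK/LDH-coupled ADP-regenerating system. Calcium set to 25% of maximal activity (pCa25), in PIPES 12 mM pH 6.8 with 2 mM MgCl2 and 1 mM DTT; AC1.4 reported.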

[1] = median AC1.4 class, procedure of Example 39
[2] = AC1.4 determined according to the procedure of Example 39, reported as class symbols
[3] = median AC1.4 reported as class, procedure of Example 39

Row | Compound | Mean AC1.4 [1] | Mean AC1.4 [2] | further results
1 | NC(=O)c1cc(-c2ccc(NCC3(c4ncccc4F)CCC3)nn2)ncn1 [6-[6-({[(3-fluoro-2-pyridyl)cyclobutyl]methyl}ami-no)pyridazin-3-yl]pyrimidine-4-carboxamide] | B (B=1-10 uM) | – | –
2 | CN1CCN(C(=O)c2ccc(NCC(C)(C)c3ccc(F)cc3)nn2)CC1 [6-{[2-(4-fluorophenyl)-2-methylpropyl]amino}pyridazin-3-yl 4-methylpiperazinyl ketone] | – | D (D=>20 uM) | –
3 | CC(C)(CNc1ccc(C(=O)N2CCOCC2)nn1)c1ccc(F)cc1 [6-{[2-(4-fluorophenyl)-2-methylpropyl]amino}pyridazin-3-yl morpholin-4-yl ketone] | – | D (D=>20 uM) | –
4 | CC(C)(CNc1ccc(C(=O)N2CCNCC2)nn1)c1ccc(F)cc1 [6-{[2-(4-fluorophenyl)-2-methylpropyl]amino}pyridazin-3-yl piperazinyl ketone] | – | D (D=>20 uM) | –
5 | CC(C)(CNc1ccc(C#N)nn1)c1ccc(F)cc1 [6-{[2-(4-fluorophenyl)-2-methylpropyl]amino}pyridazine-3-carbonitrile] | – | D (D=>20 uM) | –
6 | CC(C)(CNc1ccc(C(N)=O)nn1)c1ccc(F)cc1 [6-{[2-(4-fluorophenyl)-2-methylpropyl]amino}pyridazine-3-carboxamide] | – | C (C=10-20 uM) | –
7 | CC(C)(CNc1ccc(C(=O)O)nn1)c1ccc(F)cc1 [6-{[2-(4-fluorophenyl)-2-methylpropyl]amino}pyridazine-3-carboxylic acid] | – | D (D=>20 uM) | –
8 | O=c1cc(-c2ccc(NCC3(c4ncccc4F)CCC3)nn2)nc2[nH]ccn12 [7-[6-({[(3-fluoro-2-pyridyl)cyclobutyl]methyl}ami-no)pyridazin-3-yl]-4-hydro-4-imidazolino[1,2-a]pyrimidin-5-one] | – | – | Mean AC1.4 [3]: B (B=1-10 uM)
9 | CC(C)(Nc1ccc(-c2ccccc2)nn1)c1ccccc1 [(1-methyl-1-phenylethyl)(6-phenylpyridazin-3-yl)amine] | B (B=1-10 uM) | – | –
10 | N#C/N=C(/N)c1cnc(-c2ccc(NCC3(c4ncccc4F)CCC3)nn2)s1 [(2E)-3-amino-3-{2-[6-({[(3-fluoro(2-pyridyl))cyclobutyl]methyl}ami-no)pyridazin-3-yl](1,3-thiazol-5-yl)}-2-azaprop-2-enenitrile] | B (B=1-10 uM) | – | –
11 | N[C@H](CO)C(=O)NCc1cnc(-c2ccc(NCC3(c4ncccc4F)CCC3)nn2)s1 [(2R)-2-amino-N-({2-[6-({[(3-fluoro(2-pyridyl))cyclobutyl]methyl}ami-no)pyridazin-3-yl](1,3-thiazol-5-yl)}methyl)-3-hydroxypropanamide] | A (A=<1 uM) | – | –
12 | C[C@@H](N)C(=O)NCc1cnc(-c2ccc(NCC3(c4ncccc4F)CCC3)nn2)s1 [(2R)-2-amino-N-({2-[6-({[(3-fluoro(2-pyridyl))cyclobutyl]methyl}ami-no)pyridazin-3-yl](1,3-thiazol-5-yl)}methyl)propanamide] | A (A=<1 uM) | – | –
13 | C[C@@H](O)C(=O)NCc1cnc(-c2ccc(NCC3(c4ncccc4F)CCC3)nn2)s1 [(2R)-N-({2-[6-({[(3-fluoro(2-pyridyl))cyclobutyl]methyl}ami-no)pyridazin-3-yl](1,3-thiazol-5-yl)}methyl)-2-hydroxypropanamide] | – | – | Mean AC1.4 [3]: A (A=<1 uM)
14 | N[C@@H](CO)C(=O)NCc1cnc(-c2ccc(NCC3(c4ncccc4F)CCC3)nn2)s1 [(2S)-2-amino-N-({2-[6-({[(3-fluoro(2-pyridyl))cyclobutyl]methyl}ami-no)pyridazin-3-yl](1,3-thiazol-5-yl)}methyl)-3-hydroxypropanamide] | A (A=<1 uM) | – | –
15 | C[C@H](N)C(=O)NCc1cnc(-c2ccc(NCC3(c4ncccc4F)CCC3)nn2)s1 [(2S)-2-amino-N-({2-[6-({[(3-fluoro(2-pyridyl))cyclobutyl]methyl}ami-no)pyridazin-3-yl](1,3-thiazol-5-yl)}methyl)propanamide] | A (A=<1 uM) | – | –
16 | C[C@H](O)C(=O)NCc1cnc(-c2ccc(NCC3(c4ncccc4F)CCC3)nn2)s1 [(2S)-N-({2-[6-({[(3-fluoro(2-pyridyl))cyclobutyl]methyl}ami-no)pyridazin-3-yl](1,3-thiazol-5-yl)}methyl)-2-hydroxypropanamide] | – | – | Mean AC1.4 [3]: A (A=<1 uM)
17 | NC1(C(=O)NCc2cnc(-c3ccc(NCC4(c5ncccc5F)CCC4)nn3)s2)COC1 [(3-aminooxetan-3-yl)-N-({2-[6-({[(3-fluoro(2-pyridyl))cyclobutyl]methyl}ami-no)pyridazin-3-yl](1,3-thiazol-5-yl)}methyl)carboxamide] | – | – | Mean AC1.4 [3]: A (A=<1 uM)
18 | CC(C)(CNc1ccc(-c2nnn[nH]2)nn1)c1ccc(F)cc1 [(6-(1H-1,2,3,4-tetraazol-5-yl)pyridazin-3-yl)[2-(4-fluorophenyl)-2-methylpropyl]amine] | – | D (D=>20 uM) | –

More lines, main results first:

Row | Mean AC1.4 [1] | Mean AC1.4 [2] | Compound | further results
19 | – | A (A=<1 uM) | CC(C)(CNc1ccc(-c2cccc3[nH]ncc23)nn1)c1ccc(F)cc1 [(6-(1H-indazol-4-yl)pyridazin-3-yl)[2-(4-fluorophenyl)-2-methylpropyl]amine] | –
20 | B (B=1-10 uM) | – | CC(C)(Nc1ccc(-c2ccc3[nH]ncc3c2)nn1)c1ccccc1 [(6-(1H-indazol-5-yl)pyridazin-3-yl)(1-methyl-1-phenylethyl)amine] | –
21 | – | B (B=1-10 uM) | CC(C)(CNc1ccc(-c2ccc3[nH]ncc3c2)nn1)c1ncccc1F [(6-(1H-indazol-5-yl)pyridazin-3-yl)[2-(3-fluoro(2-pyridyl))-2-methylpropyl]amine] | –
22 | – | A (A=<1 uM) | CC(C)(CNc1ccc(-c2ccc3[nH]ncc3c2)nn1)c1ccc(F)cc1 [(6-(1H-indazol-5-yl)pyridazin-3-yl)[2-(4-fluorophenyl)-2-methylpropyl]amine] | –
23 | – | A (A=<1 uM) | c1ccc(C2(CNc3ccc(-c4ccc5[nH]ncc5c4)nn3)CCC2)nc1 [(6-(1H-indazol-5-yl)pyridazin-3-yl)[(2-pyridylcyclobutyl)methyl]amine] | –
24 | B (B=1-10 uM) | – | Fc1cccnc1C1(Nc2ccc(-c3ccc4[nH]ncc4c3)nn2)CCC1 [(6-(1H-indazol-5-yl)pyridazin-3-yl)[(3-fluoro(2-pyridyl))cyclobutyl]amine] | –
25 | A (A=<1 uM) | – | Fc1ccc(C2(Nc3ccc(-c4ccc5[nH]ncc5c4)nn3)CCC2)cc1 [(6-(1H-indazol-5-yl)pyridazin-3-yl)[(4-fluorophenyl)cyclobutyl]amine] | –
26 | – | C (C=10-20 uM) | c1cnc(C2(CNc3ccc(-c4ccc5[nH]ncc5c4)nn3)CCC2)cn1 [(6-(1H-indazol-5-yl)pyridazin-3-yl)[(pyrazin-2-ylcyclobutyl)methyl]amine] | –
27 | B (B=1-10 uM) | – | Fc1cccnc1C1(CNc2ccc(-c3ccc4[nH]ncc4c3)nn2)CC(F)(F)C1 [(6-(1H-indazol-5-yl)pyridazin-3-yl){[3,3-difluoro-1-(3-fluoro(2-pyridyl))cyclobutyl]methyl}amine] | –
28 | – | D (D=>20 uM) | CS(=O)(=O)N(CC1(c2ncccc2F)CNC1)c1ccc(-c2ccc3[nH]ncc3c2)nn1 [(6-(1H-indazol-5-yl)pyridazin-3-yl){[3-(3-fluoro(2-pyridyl))azetidin-3-yl]methyl}(methylsulfonyl)amine] | –
29 | – | D (D=>20 uM) | Fc1cccnc1C1(CNc2ccc(-c3ccc4[nH]ncc4c3)nn2)CNC1 [(6-(1H-indazol-5-yl)pyridazin-3-yl){[3-(3-fluoro(2-pyridyl))azetidin-3-yl]methyl}amine] | –
30 | – | A (A=<1 uM) | Fc1cccnc1C1(CNc2ccc(-c3ccc4[nH]ncc4c3)nn2)CCC1 [(6-(1H-indazol-5-yl)pyridazin-3-yl){[(3-fluoro(2-pyridyl))cyclobutyl]methyl}amine] | –
31 | – | B (B=1-10 uM) | COc1cccnc1C1(CNc2ccc(-c3ccc4[nH]ncc4c3)nn2)CCC1 [(6-(1H-indazol-5-yl)pyridazin-3-yl){[(3-methoxy(2-pyridyl))cyclobutyl]methyl}amine] | –
32 | – | A (A=<1 uM) | Fc1ccc(C2(CNc3ccc(-c4ccc5[nH]ncc5c4)nn3)CCC2)cc1 [(6-(1H-indazol-5-yl)pyridazin-3-yl){[(4-fluorophenyl)cyclo-butyl]methyl}amine] | –
33 | – | A (A=<1 uM) | COc1ccnc(C2(CNc3ccc(-c4ccc5[nH]ncc5c4)nn3)CCC2)c1 [(6-(1H-indazol-5-yl)pyridazin-3-yl){[(4-methoxy(2-pyridyl))cyclobutyl]methyl}amine] | –
34 | – | B (B=1-10 uM) | COc1ccc(C2(CNc3ccc(-c4ccc5[nH]ncc5c4)nn3)CCC2)nc1 [(6-(1H-indazol-5-yl)pyridazin-3-yl){[(5-methoxy(2-pyridyl))cyclobutyl]methyl}amine] | –
35 | – | A (A=<1 uM) | COc1cccc(C2(CNc3ccc(-c4ccc5[nH]ncc5c4)nn3)CCC2)n1 [(6-(1H-indazol-5-yl)pyridazin-3-yl){[(6-methoxy(2-pyridyl))cyclobutyl]methyl}amine] | –
36 | D (D=>20 uM) | – | FC(F)(CNc1ccc(-c2ccc3cn[nH]c3c2)nn1)c1ccccn1 [(6-(1H-indazol-6-yl)pyridazin-3-yl)(2,2-difluoro-2-(2-pyridyl)ethyl)amine] | –
37 | – | A (A=<1 uM) | CC(C)(CNc1ccc(-c2ccc3cn[nH]c3c2)nn1)c1ccc(F)cc1 [(6-(1H-indazol-6-yl)pyridazin-3-yl)[2-(4-fluorophenyl)-2-methylpropyl]amine] | –
38 | – | A (A=<1 uM) | c1ccc(C2(CNc3ccc(-c4ccc5cn[nH]c5c4)nn3)CCC2)nc1 [(6-(1H-indazol-6-yl)pyridazin-3-yl)[(2-pyridylcyclobutyl)methyl]amine] | –
39 | B (B=1-10 uM) | – | Fc1cccnc1C1(Nc2ccc(-c3ccc4cn[nH]c4c3)nn2)CCC1 [(6-(1H-indazol-6-yl)pyridazin-3-yl)[(3-fluoro(2-pyridyl))cyclobutyl]amine] | –
40 | – | C (C=10-20 uM) | c1cnc(C2(CNc3ccc(-c4ccc5cn[nH]c5c4)nn3)CCC2)cn1 [(6-(1H-indazol-6-yl)pyridazin-3-yl)[(pyrazin-2-ylcyclobutyl)methyl]amine] | –
